According to US4962113A, “Pyridinium derivatives, their production and use” (Takeda Chemical Industries, Ltd, priority 1987, dated 1990):
Read-outs that look alike come from different tables or passages of the source.

Key:
[1] = system: PAF-induced bronchoconstriction; assay: PAF inhibitory action in bronchoconstriction; assay type: in vivo, guinea pig (Hartley); conditions: oral, 30 mg/kg, one hour before PAF (0.3 μg/kg i.v.)
Description: Female and male Hartley guinea pigs weighing about 400 g were fixed on the dorsal position under anesthesia with an ethylcarbamate (1.5 g/kg, intraperitoneally). One leg of a cannula (4 legs) was inserted into the trachea, and two of the remaining three legs were connected to an artificial respirator (Harvard apparatus rodent respirator). The remaining one leg (side tube) was connected to a bronchospasm transducer 7020 (Ugobasile).
While the air volume per ventilation was adjusted to 5 to 7 ml and the air ventilation rate was controlled at 70 times/min., with a load pressure to the lung set at 10 cm H2 O, the overflown air volume was recorded on Rectigraph (Rectigraph-8S, San-ei Seiki Inc.) through a transducer. After 1 mg/kg of gallamine triethodide was given intravenously to the animals, histamine dihydrochloride (10 μg/kg) was applied intravenously to examine reaction of the animals. PAF(0.3 μg/kg) was administered intravenously, and, 30 sec. later, maximum bronchoconstriction was observed. Under these conditions, bronchoconstriction activity of the test samples was examined. The test sample was suspended in a 5% gum arabic solution, and given orally one hour before the administration of PAF. The compounds obtained in Production Examples 3 and 4 inhibited PAF-induced bronchoconstriction by oral administration (30 mg/kg).

[2] = system: platelet aggregation (PAF); assay: Inhibitory action on PAF-induced rabbit platelet aggregation; assay type: cell-based; conditions: Oryctolagus cuniculus, read-out: inhibitory percentage (platelet aggregation); for inhibition at 3 µM: 3 × 10^-6 M; for inhibition at 0.3 µM: 3 × 10^-7 M; for inhibition at 0.03 µM: 3 × 10^-8 M
Description: Blood was collected directly from the hearts of male rabbits using a syringe containing, as an anticoagulant, 3.15% citric acid (one part to 9 parts of blood). The blood was subjected to centrifuge at 800 rpm for ten minutes at room temperature to obtain platelet rich plasma (PRP). The remaining blood was further subjected to centrifuge at 3000 rpm for ten minnutes to separate platelet poor plasma (PPP) as the supernatant. PRP was diluted with PPP, and the number of platelets was adjusted to about 500,000/ μl. This PRP(250 μl) was stirred for two minutes at 37° C., and there was added a test sample, and the mixture was stirred for further two minutes, followed by addition of PAF of a given concentration. Platelet aggregation was examined by means of a platelet-agglutometer (manufactured by Rika Denki). Platelet aggregation preventing action of the test sample was determined based on the maximum percent light transmission (maximum percent. agglutination).

PAF-induced hypotension = assay: Inhibitory action on PAF-induced hypotension in rats; assay type: in vivo, rat (Sprague-Dawley); conditions: Rattus norvegicus, read-out: Inhibitory Rate (Lowering of Blood Pressure); for inhibition in vivo at 0.01 mg/kg / inhibition in vivo at 0.03 mg/kg / inhibition in vivo at 0.1 mg/kg: iv; for inhibition in vivo at 1 mg/kg / inhibition in vivo at 3 mg/kg: oral
Description: Sprague-Dawley male rats, each weighing about 250 g, were subjected to the experiment. The rats were cannulated on the side of femoral artery for measuring the blood pressure, and on the side of femoral vein for administering the drug. The blood pressure was measured through a pressure transducer and recorded. First, PAF (1 μg/kg) was administered intravenously (i.v.) to examine the extent of lowering of blood pressure. Then, the test samples were administered intravenously or orally. […]
The inhibitory action on PAF-induced hypotension (% inhibition) is indicated as the ratio of blood pressure-lowering degree (Δ mmHg) induced by PAF after administration of test samples relative to blood pressure-lowering degree (Δ mmHg) induced by PAF before administration of test samples.

Acute Toxicity Test = assay type: in vivo; conditions: oral, 1000 mg/kg, until after one week
Description: Male Jcl-ICR mice (5 wk) were used in groups of five individuals. The animals of the respective groups were orally administered with the compounds (227), (236) and (303) respectively produced in Production Examples 87, 90 and 109 at the dose of 1000 mg/kg.

Structure (SMILES)	inhibition of PAF-induced bronchoconstriction [1] [%]	inhibition at 3 µM [2] [%]	inhibition at 0.3 µM [2] [%]	inhibition at 0.03 µM [2] [%]	inhibition in vivo at 0.01 mg/kg (PAF-induced hypotension; 1 hr.) [%]	inhibition in vivo at 0.01 mg/kg (PAF-induced hypotension; 2 hr.) [%]	inhibition in vivo at 0.01 mg/kg (PAF-induced hypotension; 4 hr.) [%]	inhibition in vivo at 0.01 mg/kg (PAF-induced hypotension; 6 hr.) [%]	inhibition in vivo at 0.01 mg/kg (PAF-induced hypotension; 8 hr.) [%]	inhibition in vivo at 1 mg/kg (PAF-induced hypotension; 1 hr.) [%]	inhibition in vivo at 1 mg/kg (PAF-induced hypotension; 2 hr.) [%]	inhibition in vivo at 1 mg/kg (PAF-induced hypotension; 4 hr.) [%]	inhibition in vivo at 1 mg/kg (PAF-induced hypotension; 6 hr.) [%]	inhibition in vivo at 1 mg/kg (PAF-induced hypotension; 8 hr.) [%]	inhibition in vivo at 3 mg/kg (PAF-induced hypotension; 1 hr.) [%]	inhibition in vivo at 3 mg/kg (PAF-induced hypotension; 2 hr.) [%]	inhibition in vivo at 3 mg/kg (PAF-induced hypotension; 4 hr.) [%]	inhibition in vivo at 3 mg/kg (PAF-induced hypotension; 6 hr.) [%]	inhibition in vivo at 3 mg/kg (PAF-induced hypotension; 8 hr.) [%]	death of mice (Acute Toxicity Test)	also measured
CCCCCCCCCCCCCCCCCCNC(=O)OCC(COC(=O)NCCN(C(=O)c1cc(Br)c[n+](CC)c1)c1ccccc1)OC (centres unmarked) [Production Example 3, 5-bromo-3-[N-[2-(2-methoxy-3-octadecylcarbamoyloxyproxycarbonyl)]aminoethyl-N-phenyl]carbamoyl-1-ethyl pyridinium iodide]	64.9	–	–	–	–	–	–	–	–	–	–	–	–	–	–	–	–	–	–	–	–
CCCCCCCCCCCCOCCOCCOC(=O)NCCN(C(=O)c1cc(Br)c[n+](CC)c1)c1ccccc1 [Production Example 4, 5-bromo-3-[N-[2-[2-(2-dodecyloxyethoxy)ethoxycarbonyl]]aminoethyl-N-phenyl]carbamoyl-1-ethylpyridinium iodide]	59.9	100	100	100	–	–	–	–	–	–	–	–	–	–	–	–	–	–	–	–	–
CCC[n+]1cc(Br)cc(C(=O)N(CCC(=O)NCCOC(=O)N2CCc3ccccc3C2)c2ccccc2)c1 [Production Example 87, 5-Bromo-3-[N-[2-[[2-(1,2,3,4-tetrahydroisoquinolyl)carbonyloxy]ethyl]carbamoyl]ethyl-N-phenyl]carbamoyl-1-propylpyridinium chloride]	–	100	100	49	64	51	41	30	23	57	76	86	74	63	100	97	99	93	88	No death of mice was observed	inhibition in vivo at 0.01 mg/kg (PAF-induced hypotension; 5 min, i.v., 5 min.): 91%
CCC[n+]1cc(Br)cc(C(=O)N(CCC(=O)NCCOC(=O)Nc2cccc3ccccc23)c2ccccc2)c1 [Production Example 90, 5-bromo-3-[N-[2-[2-(1-naphthylcarbamoyloxy)ethyl]carbamoyl]ethyl-N-phenyl]carbamoyl-1-propylpyridinium chloride]	–	100	100	16	58	36	17	10	1	69	68	78	71	60	96	99	94	87	81	No death of mice was observed	inhibition in vivo at 0.03 mg/kg (PAF-induced hypotension; 1 hr.): 83%; inhibition in vivo at 0.03 mg/kg (PAF-induced hypotension; 2 hr.): 64%; inhibition in vivo at 0.03 mg/kg (PAF-induced hypotension; 4 hr.): 51%; inhibition in vivo at 0.03 mg/kg (PAF-induced hypotension; 6 hr.): 36%; inhibition in vivo at 0.03 mg/kg (PAF-induced hypotension; 8 hr.): 23%; inhibition in vivo at 0.01 mg/kg (PAF-induced hypotension; 5 min, i.v., 5 min.): 69%; inhibition in vivo at 0.03 mg/kg (PAF-induced hypotension; 5 min, i.v., 5 min.): 100%
CCC[n+]1cc(Br)cc(C(=O)N(CCC(=O)NCCNS(=O)(=O)c2cccc3ccccc23)c2ccccc2)c1 [Production Example 109, 5-Bromo-3-[N-[2-[2-(1-naphthylsulfonamide)ethyl]carbamoyl]-ethyl-N-phenyl]carbamoyl-1-propylpyridinium chloride]	–	100	100	26	–	–	–	–	–	56	65	64	54	48	95	97	97	92	80	No death of mice was observed	inhibition in vivo at 0.1 mg/kg (PAF-induced hypotension; 1 hr.): 100%; inhibition in vivo at 0.1 mg/kg (PAF-induced hypotension; 2 hr.): 97%; inhibition in vivo at 0.1 mg/kg (PAF-induced hypotension; 4 hr.): 71%; inhibition in vivo at 0.1 mg/kg (PAF-induced hypotension; 6 hr.): 50%; inhibition in vivo at 0.1 mg/kg (PAF-induced hypotension; 8 hr.): 46%; inhibition in vivo at 0.1 mg/kg (PAF-induced hypotension; 5 min, i.v., 5 min.): 100%
